What was measured:
tumor transplant model = settings: cited from earlier work
S1P receptors = settings: with the exception of S1P2; by stable internalization; cited from earlier work
[1] = system: MDA-MB-231 breast cancer cells; assay: S1P-induced cytoskeletal rearrangement / cell rounding (phalloidin staining); format: cell-based, human
Procedure: MDA-MB-231 breast cancer cells are cultured on collagen-coated coverslips in the presence of 10% FBS using standard techniques. Because S1P is present at high concentrations in serum, BCCs are “serum-starved” in Dulbecco's modified Eagle medium (DMEM) for 12 hours prior to experimental manipulation. S1P is solubilized with bovine serum albumin (BSA) carrier and administered at a final concentration of 1 nM to 1 μM. Coverslips are collected at representative time points such as 10 minutes, 1 hr., 2 hrs., 4 hrs., and 6 hrs., fixed with 4% paraformaldehyde, and stained with rhodamine-conjugated phalloidin to label cytoskeletal actin.
The cell rounding experiment can be performed using an antagonist of S1P that binds to S1P3. For example, the antiserum described in Example 1 can be employed. Serum-starved MDA-MB-231 cells are incubated with preimmune serum or S1P3-reactive antiserum for 15 minutes prior to a 30-minute exposure to 10 nM S1P, then evaluated for response both in % cells responding and average cell area.
MDA-MB-231 cells are grown under standard culture conditions and serum starved for 24 hours prior to experimental manipulation. S1P3 antiserum or pre-immune serum obtained from the same rabbit is added to the media at a final concentration of 1:10,000 as indicated. 15 minutes later, S1P is added to the media to a final concentration of 10 nM. 30 minutes after S1P administration, cells are fixed with 4% paraformaldehyde, stained with rhodamine-conjugated phalloidin, and visualized with fluorescence microscopy. Rounded cells are counted by an experimenter blinded to the identity of the sample. Cell area is determined by quantification with ImageJ software.

MCF-7 = assay: Cell proliferation by BrdU incorporation, MCF-7; format: cell-based, human
Procedure: (§1) The experiment can first be performed in the absence of the antagonist. The effect of S1P on cell proliferation is determined by measuring bromodeoxyuridine (BrdU) incorporation. In this assay, cells are treated with S1P or vehicle control (0.1% fatty acid-free BSA) for 30 minutes before being exposed to a 30-minute BrdU pulse. Cells are then fixed with ethanol, labeled with a biotinylated α-BrdU antibody, incubated with streptavidin-peroxidase, developed with DAB, and counter-stained with hematoxylin. Nuclei of cells in S-phase during the 30-minute pulse are labeled brown, while non-proliferative cells show the blue hematoxylin stain.

MDA-MB-231 = assay: Cell proliferation by BrdU incorporation, MDA-MB-231; format: cell-based, human
Procedure: as §1

MDA-MB-231 cells [2] = assay: Tamoxifen toxicity, cell viability by phase contrast microscopy; format: cell-based, human
Procedure: The experiment can be performed first without a S1P antagonist. MDA-MB-231 cells are cultured under standard conditions in Dulbecco's Minimal Essential Media supplemented with 10% fetal bovine serum and glutamate. Cells are grown in the absence of serum for 24 hours prior to experimental manipulation. Tamoxifen (Tam) and S1P are added to the media at the indicated concentrations for the indicated times at the appropriate concentrations (e.g., 3 μM Tam, 10 μM Tarn, and 20 μM Tam) for appropriate times (e.g., 6 hrs. and 24 hrs.). Cell viability is observed by direct illumination with an inverted phase contrast microscope.
The tamoxifen toxicity experiment can be performed using an antagonist of S1P that binds to S1P3. For example, the antiserum described in Example 1 can be employed. MDA-MB-231 cells are cultured under standard conditions in Dulbecco's Minimal Essential Media supplemented with 10% fetal bovine serum and glutamate. Serum concentration is reduced to 1% for 24 hours prior to experimental manipulation. Tamoxifen and S1P are added to the media at the appropriate concentrations (e.g., 0 μM Tam, 10 μM Tam, and 20 μM Tam) for appropriate times (e.g., 6 hrs. and 24 hrs.). Cell viability is observed by direct illumination with an inverted phase contrast microscope.

MDA-MB-231 cells [3] = assay: Cell motility, modified Boyden's chamber assay; format: cell-based, human; settings: 1 μM S1P
Procedure: Cell motility is determined using a modified Boyden's chamber assay. MDA-MB-231 cells are introduced into the upper wells of collagen-coated chambers in serum-free DMEM and incubated for 30 minutes before the addition of either 1 μM S1P in BSA or BSA alone. At the indicated times, wells are isolated and fixed with 4% paraformaldehyde before non-migrated cells in the upper well are removed with a cotton swab. Membranes are then stained with DAPI to visualize individual migrated cells on the bottom of the membranes. Results shown are the averages of three independent experiments.

MCF-7 cells = assay: Cell death by annexin V assay (FACS); format: cell-based, human; settings: for % Annexin positive cells: overnight
Procedure: Quantification of cell death can be performed with an annexin V assay. […] of 500 nM S1P, then collected by trypsinization, and labeled with Alexafluor 488-conjugated annexin V (Invitrogen Corp, Carlsbad, Calif.) per manufacturer's protocol. Cells can be counted on a FACSAria cell sorting system and analyzed with FACSDiva software (BD Biosciences, San Jose, Calif.). […] This effect is attenuated by co-administration of 500 nM S1P.

S1P3 = molecular target: T1, S1P3 (Homo sapiens, UniProt Q99500); assay: Immunocytochemistry of hybridoma supernatants on HEK293 cells expressing tagged S1P3; format: binding; settings: HEK293 cells expressing S1P3 fused to V5 or EGFP
T1 construct: expressed in transfected cells; host or cells: HEK293 (pcDNA3.1)
T1 sequence (Q99500 whole entry, the tested form may be a part): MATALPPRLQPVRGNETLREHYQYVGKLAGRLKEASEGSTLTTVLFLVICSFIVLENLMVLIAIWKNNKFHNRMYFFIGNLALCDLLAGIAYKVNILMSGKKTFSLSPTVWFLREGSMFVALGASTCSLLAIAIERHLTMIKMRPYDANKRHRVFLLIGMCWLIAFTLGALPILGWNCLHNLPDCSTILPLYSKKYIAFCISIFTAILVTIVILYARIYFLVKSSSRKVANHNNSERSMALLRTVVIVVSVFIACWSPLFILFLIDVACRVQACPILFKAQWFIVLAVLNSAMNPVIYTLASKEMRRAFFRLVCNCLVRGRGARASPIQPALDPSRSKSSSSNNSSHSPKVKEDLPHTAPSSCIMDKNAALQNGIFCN
Excerpt: A synthetic peptide is synthesized with the amino acid sequence: KKTFSLSPTVWFLREG. This sequence corresponds to the extra-cellular loop between transmembrane domains 2 and 3 of cell surface receptor S1P3. This peptide is conjugated to keyhole limpet hemocyanin (KLH) and used for the immunization of 5 balb/c mice. Production of specific antibodies is confirmed by immunocytochemistry. HEK293 cells are transiently transfected with a mammalian expression vector (pcDNA3.1) encoding the full-length S1P3 protein fused to either a V5 epitope or enhanced green fluorescent protein (EGFP) on its C-terminal end. After 16-36 hours, cells are fixed with 4% paraformaldehyde, blocked with BSA, and exposed to antiserum from immunized mice (dilutions of 1:10, 1:25, 1:50, 1:100, 1:250, 1:500, 1:1,000, 1:2,000, 1:5,000), or supernatants from hybridoma cultures. […] Binding of antibodies from serum or supernatants is detected with a Cy3-conjugated secondary antibody. Specificity of binding is evaluated by coincidence of this signal with green fluorescence, either from the expressed EGFP fusion protein or from secondary antibody bound to the expressed V5 epitope.
Mice are immunized with KLH-conjugated peptide at regular intervals and evaluated by enzyme-linked immunosorbent assay (ELISA) and immunocytochemistry until sera are identified that contain specific antibodies (2-3 months). […]

## CCCCCCCCc1ccc(CCC(N)(CO)CO)cc1 [FTY720]
Tumor transplant model
  Effect on angiogenesis and tumor growth: inhibit angiogenesis and subsequent growth
S1P receptors
  Inhibition of S1P receptors: effectively inhibit four of the five known receptors

## CCCCCCCCCCCCC/C=C/[C@@H](O)[C@@H](N)COP(=O)(O)O [S1P, Sphingosine 1-phosphate]
[1]; 1 nM S1P
  Cell shape change: minor cell shape changes
[1]; 10 nM S1P
  Cell shape change: dramatic cell rounding
[1]; 10 nM S1P, 30 min, no serum
  % Rounded Cells Following S1P Treatment: 64%
  Average Cell Area Following S1P Treatment: 960.4 μm^2
[1]; 1 μM S1P, within 10 minutes
  Cells with marked cytoskeletal rearrangement: > 90%
MCF-7
  Effect on mitosis (BrdU incorporation), in words: dose-dependent increase in mitosis
MCF-7; 10 nM S1P
  Mitosis by BrdU incorporation: 49%
MCF-7; 100 nM S1P
  Mitosis by BrdU incorporation: 45%
MCF-7; 1 μM S1P
  Mitosis by BrdU incorporation: 61%
MDA-MB-231
  Effect on mitosis (BrdU incorporation), in words: dose-dependent increase in mitosis
MDA-MB-231; 10 nM S1P
  Mitosis by BrdU incorporation: 71%
MDA-MB-231; 100 nM S1P
  Mitosis by BrdU incorporation: 84%
MDA-MB-231; 1 μM S1P
  Mitosis by BrdU incorporation: 88%
MDA-MB-231 cells [2]; 1 μM S1P with 10 or 20 μM tamoxifen, 6 hours, serum-free
  Cell viability under tamoxifen with S1P: many viable cells remain
MDA-MB-231 cells [2]; S1P with 3 or 10 μM tamoxifen, 24 hour, serum-free
  Survival under tamoxifen with S1P: markedly improves survival
MDA-MB-231 cells [3]
  Effect on cell motility compared to vehicle control, in words: rapid and significant increase in cell motility
MDA-MB-231 cells [3]; 1 hours
  Cell migration (migrated cells): 672.5 Cells/mm^2
MDA-MB-231 cells [3]; 2 hours
  Cell migration (migrated cells): 900 Cells/mm^2
MDA-MB-231 cells [3]; 4 hours
  Cell migration (migrated cells): 1385 Cells/mm^2
MDA-MB-231 cells [3]; two hour time point
  Increase in migrated cells compared to vehicle control: nearly two-fold increase
MDA-MB-231 cells [3]; within one hour
  Increase in migrated cells compared to vehicle control: 74%
MCF-7 cells; 500 nM S1P with 10 μM Tamoxifen
  % Annexin positive cells: 15.9%
MCF-7 cells; 500 nM S1P with 20 μM Tamoxifen
  % Annexin positive cells: 20.2%
MCF-7 cells; 500 nM S1P, 0 Tamoxifen
  % Annexin positive cells: 6.2%
MCF-7 cells; co-administration of 500 nM S1P
  Effect on tamoxifen-induced annexin V binding, in words: attenuated

## CC/C(=C(\c1ccccc1)c1ccc(OCCN(C)C)cc1)c1ccccc1 [Tamoxifen]
MDA-MB-231 cells [2]; 3 μM tamoxifen, 24 hour, serum-free
  Cell viability: most control cells are lost
MDA-MB-231 cells [2]; 10 μM Tam, 6 hours, 1% FBS
  Cell viability: appear normal
MDA-MB-231 cells [2]; 10 μM tamoxifen, 6 hours, serum-free
  Cell viability: only a few viable cells remain
MDA-MB-231 cells [2]; 10 μM tamoxifen, 24 hour, serum-free
  Cell viability: cell death is complete
MDA-MB-231 cells [2]; 20 μM Tam, 6 hours, 1% FBS
  Cell viability: begin to show evidence of cell death
MDA-MB-231 cells [2]; 20 μM tamoxifen, 6 hours, serum-free
  Cell viability: all cells are dead/dying
MCF-7 cells; 10 μM Tamoxifen, BSA (no S1P)
  % Annexin positive cells: 20.1%
MCF-7 cells; 20 μM Tamoxifen, BSA (no S1P)
  % Annexin positive cells: 28.9%
MCF-7 cells; overnight treatment with tamoxifen
  Effect on annexin V binding (apoptotic cell death), in words: increase in annexin V binding

B1: EDDbeta7H9: Hybridoma EDDbeta7H9 (ATCC PTA-9973) produces the monoclonal antibody Mab7H9, which binds S1P3 (antibody, V domains shown)
VL: DIVMTQSHKFMSTSVGDRVSITCKASQDVSTGVVWYQQKEGQSPKLLIYSASYRYTGVPNRFTGSGSGTDFTFTISGVQAEDLAVYYCQQHYSSPTFGGGTKLEIKRADAAPTVSIFPPSS
VH: QVTLKESGPGILQPSQTLSLTCSFSGFSLSTSNMGVGWIRQPSGKGLEWLLHILWNDNKHYNPALKSRLTISKDTYKNQVFLKIANVDTADTATYYCARILYRSNYYVMDYWGQGTSVTVSSAKTTPPSVYPL
S1P3
  Presence of specific antibodies in hybridoma supernatant by immunocytochemistry: positive

Source: US20140336365A1, “CDR REGIONS OF MONOCLONAL ANTIBODY THAT ANTAGONIZE SPHINOGOSINE 1-PHOSPHATE AND RELATED METHODS” (priority 2011, published 2014)
